Results published in PMC6152622, “Synthesis and Evaluation of Phenylxanthine Derivatives as Potential Dual A2AR Antagonists/MAO-B Inhibitors for Parkinson’s Disease” (Molecules : A Journal of Synthetic Chemistry and Natural …, 2017).
Like-named read-outs stand apart in the source and are kept apart here.

Legend:
recombinant human MAO-B = biological target: T1, recombinant human MAO-B (Homo sapiens, UniProt P27338); test: MAO-B inhibition, MAO-Glo commercial kit; type: biochemical; conditions: Ki converted from IC50 by Cheng-Prusoff; duplicate, mean ± SD; read-out: Ki hMAO-B
T1 construct: purchased Sigma-Aldrich Corporation
T1 sequence (P27338 1-520): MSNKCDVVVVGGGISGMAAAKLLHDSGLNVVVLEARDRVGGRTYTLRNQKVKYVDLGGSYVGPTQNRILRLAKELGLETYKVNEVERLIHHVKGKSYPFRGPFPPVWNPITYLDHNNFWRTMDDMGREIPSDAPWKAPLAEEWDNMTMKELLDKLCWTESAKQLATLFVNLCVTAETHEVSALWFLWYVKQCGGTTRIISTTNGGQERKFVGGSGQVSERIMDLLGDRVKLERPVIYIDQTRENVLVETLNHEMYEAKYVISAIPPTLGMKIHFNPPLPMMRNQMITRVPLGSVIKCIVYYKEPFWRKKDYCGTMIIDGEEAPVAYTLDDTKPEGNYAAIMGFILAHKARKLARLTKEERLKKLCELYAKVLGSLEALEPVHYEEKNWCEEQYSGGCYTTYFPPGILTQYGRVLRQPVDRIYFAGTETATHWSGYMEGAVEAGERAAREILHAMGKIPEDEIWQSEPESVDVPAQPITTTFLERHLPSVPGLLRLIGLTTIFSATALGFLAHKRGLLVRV
Procedure: Inhibitory potency on MAO-B enzyme from recombinant human MAO-B were carried out by a fluorometric method with a commercial kit (Promega, MAO-Glo Assay). The MAO enzyme incubation experiments were carried with a MAO-B substrate, methyl (S)-2-(6-(2-aminoethoxy) benzo[d]thiazol-2-yl)-4,5-dihydrothiazole-4-carboxylate, which was converted to luciferin methyl ester. Then the “Luciferin Detection Reagent” was added to change the methyl ester derivative to luciferin, stop the MAO-B reaction, and simultaneously produce light. The intensity of light is directly in proportion to MAO-B activity. The assay was carried in a 96-well black opaque microplate in duplicate. The reaction mixture was composed of 12.5 μL of MAO-B substrate (a final concentration of 4 μM), 25 μL of human MAO-B (1 μg of protein/well), and 12.5 μL of test compounds for each well. After 1 h of incubation at 37 °C, each well added 50 μL of “Luciferin Detection Reagent”, and incubated an additional 20 min. the luminescent signal of microplate was measured by a luminometer. The signal from reaction of MAO-B enzyme and substrate without inhibitors accounted as the positive control, whereas the signal from reaction of MAO-B enzyme and inhibitors in the absence of substrate accounted as the negative control. Compound concentrations of 1 μM were tested at first. IC50 values (the half maximal inhibitory concentration) were performed from concentration–response curves, plotted by the GraphPad Prism software. All experiments were performed in duplicate, and data are expressed as mean ± SD.

human A2AR = biological target: T2, human A2AR (Homo sapiens, UniProt P29274); test: Radioligand binding assay ([3H]ZM241385 competition) on membranes of HEK-293 cells transfected with human A2AR; conditions: [3H]ZM241385 displacement; Ki converted from IC50 by Cheng-Prusoff; duplicate, mean ± SD; read-out: Ki hA2AR
T2 construct: expressed in transfected cells
T2 sequence (P29274 whole entry): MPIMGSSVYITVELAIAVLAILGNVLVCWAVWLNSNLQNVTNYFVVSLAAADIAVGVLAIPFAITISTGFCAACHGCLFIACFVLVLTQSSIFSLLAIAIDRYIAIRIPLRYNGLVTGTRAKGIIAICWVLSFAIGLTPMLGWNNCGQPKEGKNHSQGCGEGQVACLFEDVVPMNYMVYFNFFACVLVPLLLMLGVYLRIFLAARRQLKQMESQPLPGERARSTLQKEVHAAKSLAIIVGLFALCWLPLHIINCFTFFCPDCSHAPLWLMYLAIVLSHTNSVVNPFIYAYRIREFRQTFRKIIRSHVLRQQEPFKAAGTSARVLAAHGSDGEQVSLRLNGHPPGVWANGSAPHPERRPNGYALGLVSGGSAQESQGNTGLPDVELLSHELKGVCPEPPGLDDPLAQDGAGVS
Procedure: The binding affinity of test compounds was determined using radioligand binding assays. Human A2AR cDNA was stably transfected into HEK-293 cells. Membranes from the transfected cell were used in the interactive capacity of each compound toward the A2AR. Competition binding assay experiments by incubating membranes of 10 μg protein with 2 nM [3H]ZM241385 were carried out, with interval concentrations ranging from 0.1 nM to 100 μM of test compounds in 96-well filter plates at 4 °C for 90 min. After incubation experiments, free and bound radioligands were split by filtering and washing. Last, filter-bound radioactivity was counted after addition of 30 μL/well of scintillation solution. Nonspecific binding was measured in the presence of 100 μM ZM241385. The experiments were carried in duplicate. IC50 values were determined using a nonlinear regression curve fitting by the program GraphPad Prism. The affinities of compounds were calculated by Ki value which was from the IC50 values according as the Cheng−Prusoff equation [19].

[1] = Plasma pharmacokinetics after i.p. administration; type: in vivo, Sprague-Dawley rats; conditions: 50 mg/kg, rats
Text: (§1) Sprague-Dawley rats (200 ± 20 g) were obtained from the Laboratory Animal Center of Wenzhou Medical University (Wenzhou, China) to study the pharmacokinetics and tissue distribution studies (TDS) of PX-D-P6 and PX-E-P8 following intraperitoneal injection (i.p.) administration. The experiment procedures and protocols were approved the Animal Care and Use Committee of Wenzhou Medical College and complied with the Guide for the Care and Use of Laboratory Animals. The corresponding ethical approval code was WMU20161025.
(§2) The chosen compounds dissolved in suspension formulation (2 % Tween 80–saline) were administered to each rat at a dose of 50 mg/kg. Blood samples (0.3 mL) were collected from the caudal vein into 1.5 mL tapered plastic centrifuge tubes (pretreated with K2EDTA as an anticoagulant) at pre-dose, 0.08, 0.16, 0.25, 0.5, 1, 2, 4, 8, 12, 24 h after i.p. administration. Separately, blood and brain samples were collected at pre-dose and 1 h for TDS. Blood samples were immediately centrifuged at 3000 g for 10 min for isolation of the plasma. Brain samples were homogenized in phosphate buffer saline. 100 μL plasma or 200 μL brain sample was precipitated with addition of 400 μL acetonitrile and vortex mixed for 1 min and centrifuged at 10,000 g for 10 min. Finally, 2μL supernatant was injected into UPLC/MS system. Calibration standards samples were prepared with blank rat plasma or brain homogenates. Plasma pharmacokinetic parameters were analyzed by DAS (Drug and Statistics) software (Version 2, Wenzhou Medical University, Wenzhou, China).

[2] = test system: haloperidol-induced catalepsy in rats; test: Haloperidol-induced catalepsy, bar test; type: in vivo; conditions: i.p.
Procedure: Catalepsy was measured using a thin metal bar test at 9.0 cm height. In this test, each rat was injected intraperitoneally by haloperidol (1.5 mg/kg). Before i.p. administration of vehicle (2% Tween 80–saline), PX-D-P6 and PX-E-P8 (5, 15, 50 mg/kg), at time 0 min, we tested all rats for successful induction of catalepsy. The length of time (descent latency) it persisted in hanging onto the metal bar was measured for a period of up to 300 s (maximum score). After this period, the rat was gently removed from the bar. The high bar test was performed 20 min after the injection of compound. Descent latencies have been presented as median and interquartile ranges. Differences between medians were analyzed by Kruskal-Wallis test, followed by Bonferroni's test.

[3] = Plasma and brain distribution at 1 h after i.p. administration; type: in vivo; conditions: Sprague-Dawley, rat, ip, rats, 1 h after i.p. 50 mg/kg; for concentration at 1 h: n = 6
Text: as §1, §2

[4] = Sprague-Dawley, rat, plasma, ip, n = 6

Row | Ki (recombinant human MAO-B) [nM] | melting point [°C] | Ki (human A2AR) [µM] | SMILES | also measured
1 | 1510 ± 190 | > 300 | 0.27 ± 0.08 | Cn1c(=O)c2c(nc(-c3ccc(NC(=O)c4cccc(Cl)c4)cc3)n2C)n(C)c1=O [PX-D-P9, 3-Chloro-N-(4-(1,3,7-trimethyl-2,6-dioxo-2,3,6,7-tetrahydro-1H-purin-8-yl)phenyl)benzamide] | –
2 | 2540 ± 310 | > 300 | 3.59 ± 0.36 | COc1ccc(C(=O)Nc2cccc(-c3nc4c(c(=O)n(C)c(=O)n4C)n3C)c2)cc1OC [PX-D-M10, 3,4-Dimethoxy-N-(3-(1,3,7-trimethyl-2,6-dioxo-2,3,6,7-tetrahydro-1H-purin-8-yl)phenyl)benzamide] | –
3 | > 10000 | – | – | CCn1c(=O)c2c(nc(/C=C/c3ccc(OC)c(OC)c3)n2C)n(CC)c1=O [Istradefylline, reference compound] | –
4 | 2970 ± 370 | > 300 | 1.34 ± 0.16 | COc1ccc(C(=O)Nc2ccc(-c3nc4c(c(=O)n(C)c(=O)n4C)n3C)cc2)cc1OC [PX-D-P10, 3,4-Dimethoxy-N-(4-(1,3,7-trimethyl-2,6-dioxo-2,3,6,7-tetrahydro-1H-purin-8-yl)phenyl)benzamide] | –
5 | 1270 ± 180 | > 300 | 3.61 ± 0.41 | Cn1c(=O)c2[nH]c(-c3cccc(NC(=O)c4cccc(Cl)c4)c3)nc2n(C)c1=O [PX-D-M 4, 3-Chloro-N-(3-(1,3-dimethyl-2,6-dioxo-2,3,6,7-tetrahydro-1H-purin-8-yl)phenyl)benzamide] | –

Continued, compound first:

Row | SMILES | Ki (recombinant human MAO-B) [nM] | melting point [°C] | Ki (human A2AR) [µM] | also measured
6 | COc1ccc(C(=O)Nc2cccc(-c3nc4c([nH]3)c(=O)n(C)c(=O)n4C)c2)cc1OC [PX-D-M5, N-(3-(1,3-Dimethyl-2,6-dioxo-2,3,6,7-tetrahydro-1H-purin-8-yl)phenyl)-3,4-dimethoxybenzamide] | 2360 ± 310 | > 300 | 4.99 ± 0.75 | –
7 | Cn1c(=O)c2[nH]c(-c3ccc(NC(=O)c4cccc(Cl)c4)cc3)nc2n(C)c1=O [PX-D-P4, 3-Chloro-N-(4-(1,3-dimethyl-2,6-dioxo-2,3,6,7-tetrahydro-1H-purin-8-yl)phenyl)benzamide] | 250 ± 50 | > 300 | 1.52 ± 0.16 | –
8 | COc1ccc(/C=C/C(=O)Nc2cccc(-c3nc4c(c(=O)n(C)c(=O)n4C)n3C)c2)cc1OC [PX-E-M10] | – | > 300 | – | –
9 | Cn1c(=O)c2[nH]c(-c3ccc(NC(=O)/C=C/c4cccc(Cl)c4)cc3)nc2n(C)c1=O [PX-E-P4, (E)-3-(3-Chlorophenyl)-N-(4-(1,3-dimethyl-2,6-dioxo-2,3,6,7-tetrahydro-1H-purin-8-yl)phenyl)acrylamide] | 1750 ± 150 | > 300 | 6.43 ± 0.98 | –
10 | COc1ccc(/C=C/C(=O)Nc2cccc(-c3nc4c([nH]3)c(=O)n(C)c(=O)n4C)c2)cc1OC [PX-E-M5] | – | > 300 | – | –
11 | Cn1c(=O)c2c(nc(-c3cccc(NC(=O)c4cccc(Cl)c4)c3)n2C)n(C)c1=O [PX-D-M9, 3-Chloro-N-(3-(1,3,7-trimethyl-2,6-dioxo-2,3,6,7-tetrahydro-1H-purin-8-yl)phenyl)benzamide] | 760 ± 110 | > 300 | 2.44 ± 0.21 | –
12 | COc1ccc(C(=O)Nc2ccc(-c3nc4c([nH]3)c(=O)n(C)c(=O)n4C)cc2)cc1OC [PX-D-P5, N-(4-(1,3-Dimethyl-2,6-dioxo-2,3,6,7-tetrahydro-1H-purin-8-yl)phenyl)-3,4-dimethoxybenzamide] | 1920 ± 250 | > 300 | 4.27 ± 0.51 | –
13 | Cn1c(=O)c2c(nc(-c3ccc(NC(=O)/C=C/c4cccc(Cl)c4)cc3)n2C)n(C)c1=O [PX-E-P8, (E)-3-(3-Chlorophenyl)-N-(4-(1,3,7-trimethyl-2,6-dioxo-2,3,6,7-tetrahydro-1H-purin-8-yl)phenyl)acrylamide] | 630 ± 110 | > 300 | 0.85 ± 0.11 | Tmax ([1]; Sprague-Dawley, rat, plasma, ip, n = 6, read-out: Tmax): 28.8 min; AUC(0-t) [1, 4]: 15600 ± 1540 ng·h/mL; Cmax [1, 4]: 1640 ± 436 ng/mL; half-life [1, 4]: 196 ± 23.4 min; CL ([1]; n = 6): 10.28 ± 2.19 L/h/kg; Tmax ([1]; n = 6): 27 ± 12.6 min; Anti-catalepsy ability ([2]; 50 mg/kg (high dose)): significant anti-catalepsy ability; Effect on haloperidol-induced catalepsy ([2]; different doses (5, 15 and 50 mg/kg), haloperidol 1.5 mg/kg): significant reduction in catalepsy; Anti-catalepsy effect ([2]; low dose): slight effects; Kp at 1 h ([3]; brain and plasma, read-out: B/P Ratio (brain/plasma ratio)): 0.97; concentration at 1 h ([3]; brain, read-out: Brain concentration): 887 ± 113 ng/g; concentration at 1 h ([3]; plasma, read-out: Plasma concentration): 915 ± 231 ng/mL
